According to ChEMBL document CHEMBL3217746, “Edaravone containing isoindoline nitroxides for the potential treatment of cardiovascular ischaemia” (Medchemcomm, 2011):
Calls of active or inactive are those of the source. The rule behind the calls is not given here.

Key:
[1] = test system: H9c2; assay: Cardioprotective activity in rat H9c2 cells hypoxia-induced ischaemic model assessed as decrease in cell death at 1 to 100 uM by propidium iodide exclusion assay; type: functional, cell-based
[2] = test system: H9c2; assay: Cardioprotective activity in rat H9c2 cells hypoxia-induced ischaemic model assessed as maximal decrease in cell death at 100 uM by propidium iodide exclusion assay; type: functional, cell-based
[3] = Peak plasma concentration in rat at 1.5 mg/kg, iv bolus dose; type: ADME, organism-based; set-up: dose 1.5 mg/kg, route intravenous
[4] = test system: Rattus norvegicus; assay: Cardioprotective activity against iv dosed ischaemic brain injury rat model assessed as effective dose after 30 mins; type: functional
[5] = test system: H9c2; assay: Cardioprotective activity in rat H9c2 cells hypoxia-induced ischaemic model assessed as maximal decrease in cell death at 10 uM by propidium iodide exclusion assay; type: functional

Cmax [3] | SMILES | inhibition [1] | inhibition [2] | ED [4] | inhibition at 10 µM [5]
– | CC1=NN(c2ccc3c(c2)C(C)(C)N([O])C3(C)C)C(=O)C1 | Active | 85.5% | – | –
– | CON1C(C)(C)c2ccc(N3N=C(C)CC3=O)cc2C1(C)C | Active | – | – | –
20 µM | CC1=NN(c2ccccc2)C(=O)C1 [EDARAVONE] | Active | – | 3 mg/kg | –
– | OC[C@H]1O[C@@H](n2cnc3c(NC4CCCC4)ncnc32)[C@H](O)[C@@H]1O [N6-CYCLOPENTYLADENOSINE] | – | – | – | 75.4%
